In ChEMBL document CHEMBL1201862, “PubChem BioAssay data set” (2004):
The source made the active and inactive calls.

Assays:
[1] = molecular target: 26S proteasome non-ATPase regulatory subunit 14 (Homo sapiens, UniProt O00487); assay: inhibition of proteasome subunit RPN11 – biochemical, fluorescence polarization, uHTS hits, confirmation (AID 602368); format: functional
[2] = molecular target: 72 kDa type IV collagenase (Homo sapiens, UniProt P08253); assay: Dose Response validation of uHTS RPN11 inhibitor hits using a MMP-2 Fluorescence assay.; format: functional
Prothrombin = Prothrombin (Bos taurus, UniProt P00735); assay: thrombin protease inhibitors – biochemical, fluorescence polarization, uHTS hits, dose response (AID 602369); format: functional
[3] = viability of uninfected HEp-2 cells – cell-based, HTS, cytotoxicity control for RSV inhibitor project, dose response (AID 2410); format: functional; conditions: human respiratory syncytial virus
[4] = molecular target: T1, Dual specificity protein phosphatase 6 (Rattus norvegicus, UniProt Q64346); format: functional;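 also: confirmatory in vitro dose-response testing of MKP-3 inhibition; recombinant His-tagged MKP-3 made in E. coli BL21 with OMFP substrate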
T1 sequence (Q64346 whole entry): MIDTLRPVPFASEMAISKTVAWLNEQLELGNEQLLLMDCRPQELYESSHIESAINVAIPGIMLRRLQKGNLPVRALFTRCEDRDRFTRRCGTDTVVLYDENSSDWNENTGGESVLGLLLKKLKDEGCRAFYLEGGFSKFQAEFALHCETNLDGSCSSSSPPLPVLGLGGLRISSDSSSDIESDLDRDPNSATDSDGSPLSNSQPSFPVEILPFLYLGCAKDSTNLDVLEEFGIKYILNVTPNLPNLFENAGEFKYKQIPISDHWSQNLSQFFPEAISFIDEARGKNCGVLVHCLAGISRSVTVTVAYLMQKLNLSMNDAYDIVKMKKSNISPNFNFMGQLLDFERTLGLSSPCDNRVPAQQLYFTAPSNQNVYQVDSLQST

[5] = molecular target: T2, Tyrosine-protein phosphatase non-receptor type 7 (Homo sapiens, UniProt P35236); assay: redox-active compounds inhibiting HePTP phosphatase – biochemical, fluorescence, mechanism study (AID 2068); format: functional
T2 sequence (P35236 whole entry): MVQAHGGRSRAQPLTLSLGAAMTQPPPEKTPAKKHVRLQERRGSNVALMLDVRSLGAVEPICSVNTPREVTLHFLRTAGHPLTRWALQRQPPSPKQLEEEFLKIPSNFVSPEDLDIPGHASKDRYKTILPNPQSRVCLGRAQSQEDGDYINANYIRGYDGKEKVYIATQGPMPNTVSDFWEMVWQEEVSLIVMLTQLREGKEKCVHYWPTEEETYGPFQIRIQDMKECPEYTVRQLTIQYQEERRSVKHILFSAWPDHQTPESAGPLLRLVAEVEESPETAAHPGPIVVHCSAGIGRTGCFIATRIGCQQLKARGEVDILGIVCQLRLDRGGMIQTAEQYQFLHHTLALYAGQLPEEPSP

HEK293 = assay: HEK293T cell viability loss, resazurin readout – resazurin fluorescence, cytotoxicity control for NF-kB activator project, SAR follow-up (AID 493251); format: functional, cell-based; conditions: Homo sapiens
[6] = molecular target: T3, Apoptotic protease-activating factor 1 (Homo sapiens, UniProt O14727); assay: SAR analysis of small molecule Activators of Apaf-1 in a Fluorescent assay.; format: functional; conditions: read-out: EC50_Mean;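 also: caspase-3 cleavage of fluorogenic Rh110 DEVD substrate downstream of apoptosome activation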
T3 sequence (O14727 whole entry): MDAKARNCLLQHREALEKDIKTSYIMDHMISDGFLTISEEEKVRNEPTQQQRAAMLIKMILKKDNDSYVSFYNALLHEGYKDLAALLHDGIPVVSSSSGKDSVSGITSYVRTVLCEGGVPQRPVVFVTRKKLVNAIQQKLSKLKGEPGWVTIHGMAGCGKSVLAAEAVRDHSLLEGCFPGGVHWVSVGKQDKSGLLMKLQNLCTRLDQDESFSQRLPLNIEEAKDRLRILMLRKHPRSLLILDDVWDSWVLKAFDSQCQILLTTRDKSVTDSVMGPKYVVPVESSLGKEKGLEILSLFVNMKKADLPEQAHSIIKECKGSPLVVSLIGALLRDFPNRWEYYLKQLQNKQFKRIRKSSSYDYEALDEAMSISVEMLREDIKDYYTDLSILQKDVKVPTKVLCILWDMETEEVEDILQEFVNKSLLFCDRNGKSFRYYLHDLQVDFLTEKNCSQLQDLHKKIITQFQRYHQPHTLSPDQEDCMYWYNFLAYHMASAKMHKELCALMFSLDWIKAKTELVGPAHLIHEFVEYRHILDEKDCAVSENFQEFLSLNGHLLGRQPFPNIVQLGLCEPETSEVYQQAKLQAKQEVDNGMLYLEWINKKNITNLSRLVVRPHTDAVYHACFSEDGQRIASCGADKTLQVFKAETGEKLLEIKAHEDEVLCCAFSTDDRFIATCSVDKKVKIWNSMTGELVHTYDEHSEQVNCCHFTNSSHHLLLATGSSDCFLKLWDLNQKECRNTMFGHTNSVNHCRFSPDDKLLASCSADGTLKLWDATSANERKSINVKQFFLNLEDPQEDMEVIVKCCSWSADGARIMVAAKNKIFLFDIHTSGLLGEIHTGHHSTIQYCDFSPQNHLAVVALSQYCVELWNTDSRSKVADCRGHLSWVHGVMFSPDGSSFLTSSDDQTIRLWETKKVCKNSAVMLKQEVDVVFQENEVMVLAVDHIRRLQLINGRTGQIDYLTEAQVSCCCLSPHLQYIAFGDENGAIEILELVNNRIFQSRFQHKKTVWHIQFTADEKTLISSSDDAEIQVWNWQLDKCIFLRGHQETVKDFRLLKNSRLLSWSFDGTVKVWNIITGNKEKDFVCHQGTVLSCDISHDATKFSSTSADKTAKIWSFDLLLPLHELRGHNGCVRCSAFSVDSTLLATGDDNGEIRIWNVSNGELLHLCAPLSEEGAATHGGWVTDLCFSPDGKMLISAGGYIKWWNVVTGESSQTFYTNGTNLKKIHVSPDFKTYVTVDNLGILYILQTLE

SUMO-activating enzyme [7] = molecular target: T4, SUMO-activating enzyme (Homo sapiens, UniProt Q9UBT2); assay: blockers of SAE1/SAE2–UBC9 SUMO transfer – biochemical, HTRF, uHTS, primary screen (AID 2006); format: protein-complex assay
[8] = molecular target: T5, Small ubiquitin-related modifier 1 (Homo sapiens, UniProt P63165); assay: SUMO1 protein-protein binding blockers, potency – biochemical, FRET, dose response (AID 624383); format: functional; conditions: read-out: IC50_Mean
[9] = molecular target: T5, Small ubiquitin-related modifier 1; assay: SUMO1 protein interaction blockers, potency – biochemical, fluorescence polarization, uHTS hits, dose response (AID 624382); format: functional; conditions: read-out: IC50_Mean
[10] = molecular target: DNA (cytosine-5)-methyltransferase 1 (Homo sapiens, UniProt P26358); assay: inhibition of DNA methylation by DNMT1 – biochemical, fluorescent molecular beacon, confirmation (AID 602386); format: functional
SUMO-activating enzyme [11] = molecular target: T4, SUMO-activating enzyme; assay: blockers of UBC9-mediated SUMO conjugation – biochemical, AlphaScreen, SUMOylation inhibitor project, confirmation (AID 2018); format: functional
[12] = Trypanosoma cruzi growth suppression in host cells – NIH3T3 host cells, beta-gal luminescence, confirmation (AID 2044); format: functional, cell-based;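 also: intracellular parasites grown in NIH/3T3 mouse fibroblasts as host cells; luminescent beta-galactosidase reporter signal from transgenic T. cruzi replicating inside host cells; inhibitors lower the luminescence signal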
[13] = NIH3T3 cell viability loss – ATP luminescence, mouse fibroblasts, counter-screen, dose response (AID 2010); format: functional, cell-based;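 also: cells exposed to compound for about 90 hours before reading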

T5 sequence (P63165 whole entry): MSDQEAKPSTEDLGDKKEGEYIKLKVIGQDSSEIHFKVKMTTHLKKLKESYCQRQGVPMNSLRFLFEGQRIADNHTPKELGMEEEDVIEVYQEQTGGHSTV
T4 sequence (Q9UBE0 whole entry): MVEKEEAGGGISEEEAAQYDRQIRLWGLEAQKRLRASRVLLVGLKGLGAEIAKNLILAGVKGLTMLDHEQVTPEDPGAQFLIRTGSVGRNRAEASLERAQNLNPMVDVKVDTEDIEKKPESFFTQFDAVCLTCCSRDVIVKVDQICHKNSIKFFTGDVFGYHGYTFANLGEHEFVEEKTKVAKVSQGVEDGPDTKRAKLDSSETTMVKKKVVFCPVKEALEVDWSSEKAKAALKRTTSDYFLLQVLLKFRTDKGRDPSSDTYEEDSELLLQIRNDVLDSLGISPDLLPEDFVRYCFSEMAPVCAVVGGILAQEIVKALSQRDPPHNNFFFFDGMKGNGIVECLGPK
T4 sequence (Q9UBT2 whole entry): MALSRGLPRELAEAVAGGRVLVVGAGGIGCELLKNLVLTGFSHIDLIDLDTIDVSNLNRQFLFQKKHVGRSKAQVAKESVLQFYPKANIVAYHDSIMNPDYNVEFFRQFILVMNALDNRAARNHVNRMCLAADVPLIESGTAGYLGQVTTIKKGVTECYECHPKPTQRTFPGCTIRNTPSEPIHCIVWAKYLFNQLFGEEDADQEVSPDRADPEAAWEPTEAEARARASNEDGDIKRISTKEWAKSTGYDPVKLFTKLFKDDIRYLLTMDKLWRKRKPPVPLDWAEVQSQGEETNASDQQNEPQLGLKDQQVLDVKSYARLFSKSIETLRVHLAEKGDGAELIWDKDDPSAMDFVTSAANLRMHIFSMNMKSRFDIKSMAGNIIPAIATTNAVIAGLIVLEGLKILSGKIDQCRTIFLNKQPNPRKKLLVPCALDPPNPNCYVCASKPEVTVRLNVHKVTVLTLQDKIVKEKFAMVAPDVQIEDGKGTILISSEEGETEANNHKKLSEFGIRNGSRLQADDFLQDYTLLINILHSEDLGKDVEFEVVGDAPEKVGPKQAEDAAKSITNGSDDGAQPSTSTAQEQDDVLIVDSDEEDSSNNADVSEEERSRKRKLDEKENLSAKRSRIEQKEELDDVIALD
72 kDa type IV collagenase, sequence (P08253 whole entry): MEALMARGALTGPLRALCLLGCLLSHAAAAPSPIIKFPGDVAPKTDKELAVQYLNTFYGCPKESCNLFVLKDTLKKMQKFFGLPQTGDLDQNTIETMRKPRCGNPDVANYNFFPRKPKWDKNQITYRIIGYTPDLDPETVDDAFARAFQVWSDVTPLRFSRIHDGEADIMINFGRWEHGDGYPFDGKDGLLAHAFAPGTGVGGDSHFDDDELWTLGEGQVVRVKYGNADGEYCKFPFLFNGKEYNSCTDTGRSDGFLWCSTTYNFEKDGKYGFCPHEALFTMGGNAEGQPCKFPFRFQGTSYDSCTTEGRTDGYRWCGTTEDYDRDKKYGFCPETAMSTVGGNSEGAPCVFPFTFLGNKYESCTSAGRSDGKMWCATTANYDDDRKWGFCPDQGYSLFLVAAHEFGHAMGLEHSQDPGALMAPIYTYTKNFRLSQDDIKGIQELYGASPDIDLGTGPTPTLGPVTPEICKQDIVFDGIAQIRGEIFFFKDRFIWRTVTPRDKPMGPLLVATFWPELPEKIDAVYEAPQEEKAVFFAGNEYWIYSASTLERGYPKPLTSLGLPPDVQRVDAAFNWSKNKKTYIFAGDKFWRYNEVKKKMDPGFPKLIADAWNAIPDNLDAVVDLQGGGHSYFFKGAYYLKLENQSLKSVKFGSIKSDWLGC
26S proteasome non-ATPase regulatory subunit 14, sequence (O00487 whole entry): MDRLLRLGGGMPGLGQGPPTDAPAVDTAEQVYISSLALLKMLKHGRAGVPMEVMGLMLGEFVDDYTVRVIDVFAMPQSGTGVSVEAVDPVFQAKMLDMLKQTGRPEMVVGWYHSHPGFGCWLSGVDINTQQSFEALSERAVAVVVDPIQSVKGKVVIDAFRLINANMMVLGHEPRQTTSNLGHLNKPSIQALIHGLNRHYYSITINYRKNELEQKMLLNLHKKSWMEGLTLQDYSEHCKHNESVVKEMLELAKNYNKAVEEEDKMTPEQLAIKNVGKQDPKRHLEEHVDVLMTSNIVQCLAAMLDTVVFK
DNA (cytosine-5)-methyltransferase 1, sequence (P26358 whole entry): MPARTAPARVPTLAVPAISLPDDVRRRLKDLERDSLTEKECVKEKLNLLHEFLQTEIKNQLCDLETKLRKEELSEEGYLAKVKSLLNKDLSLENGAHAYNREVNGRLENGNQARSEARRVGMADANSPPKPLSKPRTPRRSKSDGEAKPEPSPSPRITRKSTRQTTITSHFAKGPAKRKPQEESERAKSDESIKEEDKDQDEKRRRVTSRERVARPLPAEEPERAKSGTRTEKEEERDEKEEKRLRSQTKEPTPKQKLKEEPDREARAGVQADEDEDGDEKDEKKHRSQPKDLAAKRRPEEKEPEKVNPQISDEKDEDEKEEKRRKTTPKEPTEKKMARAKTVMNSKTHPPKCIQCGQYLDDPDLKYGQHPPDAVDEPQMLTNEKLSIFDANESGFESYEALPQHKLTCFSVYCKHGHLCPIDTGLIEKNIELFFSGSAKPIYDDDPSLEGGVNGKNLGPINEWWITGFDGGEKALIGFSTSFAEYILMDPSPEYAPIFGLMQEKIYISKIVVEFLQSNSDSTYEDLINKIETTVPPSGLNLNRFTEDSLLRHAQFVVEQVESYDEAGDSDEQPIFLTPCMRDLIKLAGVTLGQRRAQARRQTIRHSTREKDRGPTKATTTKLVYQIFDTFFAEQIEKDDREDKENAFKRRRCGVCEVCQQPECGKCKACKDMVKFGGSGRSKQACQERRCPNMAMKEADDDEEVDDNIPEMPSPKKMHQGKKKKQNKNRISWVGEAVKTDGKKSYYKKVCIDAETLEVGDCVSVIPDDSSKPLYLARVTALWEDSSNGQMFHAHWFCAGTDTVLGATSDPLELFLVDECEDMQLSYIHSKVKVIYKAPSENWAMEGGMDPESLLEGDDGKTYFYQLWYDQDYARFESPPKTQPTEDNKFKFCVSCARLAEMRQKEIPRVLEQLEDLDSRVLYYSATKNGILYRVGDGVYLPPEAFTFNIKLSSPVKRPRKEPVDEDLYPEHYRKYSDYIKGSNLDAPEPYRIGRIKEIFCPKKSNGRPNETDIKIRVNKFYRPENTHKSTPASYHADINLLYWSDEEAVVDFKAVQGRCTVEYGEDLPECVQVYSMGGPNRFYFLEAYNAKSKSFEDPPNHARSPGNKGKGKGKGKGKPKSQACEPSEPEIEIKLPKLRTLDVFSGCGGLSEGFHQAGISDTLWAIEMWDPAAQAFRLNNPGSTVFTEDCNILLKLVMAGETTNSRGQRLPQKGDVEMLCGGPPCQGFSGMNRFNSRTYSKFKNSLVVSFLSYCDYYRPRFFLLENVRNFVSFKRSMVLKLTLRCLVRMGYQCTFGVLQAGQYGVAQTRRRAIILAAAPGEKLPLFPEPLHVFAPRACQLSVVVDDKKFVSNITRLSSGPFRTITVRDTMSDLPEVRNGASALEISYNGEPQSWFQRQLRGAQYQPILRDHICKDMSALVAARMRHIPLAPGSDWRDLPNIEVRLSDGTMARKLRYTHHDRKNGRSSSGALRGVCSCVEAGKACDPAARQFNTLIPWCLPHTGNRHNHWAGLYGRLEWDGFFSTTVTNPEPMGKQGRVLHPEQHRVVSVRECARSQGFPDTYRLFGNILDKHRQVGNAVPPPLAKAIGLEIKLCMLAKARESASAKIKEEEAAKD

With `CCc1ccc(/C=C2\SC(=S)N(CCC(=O)N3CCN(C)CC3)C2=O)cc1` the IC50 [1] was 51.6 µM (active), the IC50 [2] was > 100 µM (inactive) and the IC50 (Prothrombin) was 82.7 µM (active). The CC50 [3] was 18.6 µM (active).

In the case of `CCN1CCN(C(=S)c2ccc(O)c(OC)c2)CC1`, the IC50 [4] is reported as > 100 µM (inactive) and the IC50 [5] is reported as 74.5 µM (active).

In the case of `CC(C)(C)c1ccc(-c2noc(CCC(=O)NC3CC3)n2)cc1`, the IC50 (HEK293) is reported as > 80 µM (inactive).

For `O=C1CC2(CC(c3ccc(Cl)cc3)=NO2)C(=O)N1c1cccc(Cl)c1` (stereo not drawn), the EC50 [6] was > 100 µM (inactive).

For `C/C(=N\NC(=O)c1cc(O)cc(O)c1)c1ccc(NC(=O)Cc2ccccc2)cc1`, the IC50 (SUMO-activating enzyme [7]) was 9.77 µM (active), the IC50 [8] was 12 µM (active) and the IC50 [9] was 50.1 µM (inactive). For the same molecule, the IC50 [10] was 4.69 µM (active) and the IC50 (SUMO-activating enzyme [11]) was 740 nM (active).

For `O=C(N/N=C\c1ccc(-c2ccc([N+](=O)[O-])cc2)o1)C1COc2ccccc2O1` (stereo not drawn), the IC50 [1] was 28.2 µM (active), the EC50 [12] was 620 nM (active) and the IC50 [2] was > 100 µM (inactive). The IC50 (Prothrombin) was 36.4 µM (active) and the EC50 [13] was > 60 µM (not active).
